The structures appear in SMILES notation.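 Dose response: 5 concentrations. Exposure: 48 h. Format: 96-well plates. Endpoint: linear interpolation; highest concentration if not reached. GI50: concentration for 50% inhibition of growth. TGI marks complete inhibition of growth.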

Among the test systems are DU-145 prostate; K-562 leukemia; NCI/ADR-RES ovarian; SF-295 CNS; MALME-3M melanoma; M14 melanoma; PC-3 prostate; CAKI-1 renal; ACHN renal; T-47D breast.
What all share (assay): NCI tumour cell line growth inhibition, 48 h

For the compound `COc1cc(C)c(C(=O)O[C@H]2[C@H](O[C@H]3[C@@H](O)COC(O[C@H]4C[C@H]5[C@@H]6CC=C7C[C@@H](O)CC[C@]7(C)[C@H]6CC[C@]5(C)[C@H]4[C@H](C)C(=O)CCC(C)C)[C@@H]3OC(C)=O)OC[C@@H](O)[C@@H]2O)c(C)c1` (stereo partly drawn), the GI50 with DU-145 prostate was 1520 nM; with K-562 leukemia, less than 10 nM; with NCI/ADR-RES ovarian, 4790 nM; with SF-295 CNS, less than 10 nM; with MALME-3M melanoma, 25.7 nM; with M14 melanoma it was less than 10 nM. The GI50 in the assay with PC-3 prostate is less than 10 nM; in the assay with CAKI-1 renal, less than 10 nM; in the assay with ACHN renal, 76.7 nM; with T-47D breast, 24.9 nM. Moreover, the TGI with DU-145 prostate was 21900 nM; in the assay with K-562 leukemia, 7470 nM; with NCI/ADR-RES ovarian it was 31200 nM; in the assay with SF-295 CNS, less than 10 nM; in the assay on MALME-3M melanoma it was 5890 nM; in the assay on M14 melanoma, less than 10 nM. The TGI in the assay with PC-3 prostate was 2400 nM; with CAKI-1 renal, 1180 nM; in the assay on ACHN renal, 18600 nM; in the assay with T-47D breast, 16700 nM.
As to `CCSc1oc(-c2ccccc2)nc1[P+](c1ccccc1)(c1ccccc1)c1ccccc1`, the GI50 in the assay on DU-145 prostate is 314 nM; with K-562 leukemia, 152 nM; in the assay on NCI/ADR-RES ovarian, 2290 nM; in the assay with SF-295 CNS, 241 nM; in the assay on MALME-3M melanoma, 287 nM; in the assay on M14 melanoma, 334 nM. Moreover, the GI50 with PC-3 prostate is 213 nM; in the assay with CAKI-1 renal, 790 nM; in the assay on ACHN renal it was 309 nM; in the assay on T-47D breast, 68.6 nM. In addition, the TGI with DU-145 prostate turned out to be 2630 nM; in the assay with K-562 leukemia, 3450 nM; in the assay on NCI/ADR-RES ovarian, 9580 nM; in the assay with SF-295 CNS, 739 nM; in the assay on MALME-3M melanoma it was 1300 nM; in the assay with M14 melanoma it was 1840 nM. The TGI with PC-3 prostate amounted to 1440 nM; in the assay with CAKI-1 renal, 2660 nM; with ACHN renal it was 1130 nM; in the assay on T-47D breast, 1150 nM.
As for `CC(C)C[C@H](NC(=O)[C@H](CCc1ccccc1)NC(=O)CN1CCOCC1)C(=O)N[C@@H](Cc1ccccc1)C(=O)N[C@@H](CC(C)C)C(=O)[C@@]1(C)CO1`, the GI50 in the assay with DU-145 prostate is 18.3 nM; with K-562 leukemia it was 25.2 nM; in the assay on NCI/ADR-RES ovarian, 636 nM; in the assay with SF-295 CNS, less than 10 nM; in the assay on MALME-3M melanoma, 52.7 nM; in the assay with M14 melanoma, less than 13.1 nM. Moreover, the GI50 with PC-3 prostate was 24.7 nM; in the assay with CAKI-1 renal, 109 nM; with ACHN renal, 36.6 nM; in the assay on T-47D breast, less than 12.8 nM. Also, the TGI was 1370 nM in the assay with DU-145 prostate; more than 100000 nM in the assay on K-562 leukemia; more than 100000 nM with NCI/ADR-RES ovarian; 56.1 nM in the assay with SF-295 CNS; 586 nM in the assay on MALME-3M melanoma; 44.6 nM in the assay with M14 melanoma. In addition, the TGI came to 305 nM in the assay on PC-3 prostate, 781 nM with CAKI-1 renal, 2660 nM in the assay on ACHN renal and 28 nM in the assay with T-47D breast.
`C#CCN1C(=O)/C(=c2\sc3n(c2=O)C2C(NN=3)N(CC)C(=O)N2CC)c2ccccc21` (stereo not drawn): the GI50 with DU-145 prostate was 1040 nM; in the assay with K-562 leukemia, 342 nM; with NCI/ADR-RES ovarian, 712 nM; in the assay with SF-295 CNS, 529 nM; in the assay on MALME-3M melanoma, 595 nM; in the assay with M14 melanoma, 283 nM. In addition, the GI50 with PC-3 prostate is 463 nM; with CAKI-1 renal it was 459 nM; with ACHN renal, 650 nM; with T-47D breast, 639 nM. Besides, the TGI with DU-145 prostate is more than 38600 nM; in the assay with K-562 leukemia, more than 100000 nM; with NCI/ADR-RES ovarian, 21900 nM; in the assay with SF-295 CNS, 8830 nM; in the assay on MALME-3M melanoma, more than 100000 nM; in the assay with PC-3 prostate it was more than 100000 nM. Besides, the TGI with CAKI-1 renal was more than 54200 nM; in the assay on ACHN renal it was more than 58200 nM; with T-47D breast it was more than 100000 nM.
Turning to `Cn1nc(C(F)(F)F)c(-c2ccc(Cl)c(C(F)(F)F)c2)c1-c1ccc(OCc2ccc(Cl)cc2)cc1O`, the GI50 was 2030 nM with DU-145 prostate; 1840 nM in the assay with K-562 leukemia; 1560 nM with NCI/ADR-RES ovarian; 1640 nM in the assay on SF-295 CNS; 1390 nM with MALME-3M melanoma; 1810 nM in the assay on M14 melanoma. Besides, the GI50 in the assay on PC-3 prostate is 1660 nM; in the assay on CAKI-1 renal, 1480 nM; in the assay with ACHN renal, 1610 nM; in the assay with T-47D breast it was 1270 nM. In addition, the TGI in the assay with DU-145 prostate was 7470 nM; with K-562 leukemia it was 7470 nM; in the assay with NCI/ADR-RES ovarian it was 4990 nM; in the assay with SF-295 CNS, 5590 nM; with MALME-3M melanoma, 4960 nM; in the assay with M14 melanoma it was 6850 nM. Further, the TGI in the assay with PC-3 prostate was found to be 6680 nM; in the assay with CAKI-1 renal, 5620 nM; in the assay with ACHN renal, 5030 nM; in the assay on T-47D breast, 5320 nM.
For the compound `CCN(CC)CCN1C(=O)c2c(c(C)c3c(oc4cc(O)ccc43)c2C)C1=O`, the GI50 was 1720 nM with DU-145 prostate; 2300 nM in the assay with K-562 leukemia; 1660 nM with NCI/ADR-RES ovarian; 1560 nM in the assay with SF-295 CNS; 1560 nM in the assay on MALME-3M melanoma; 1810 nM in the assay with M14 melanoma. Moreover, the GI50 was 1500 nM in the assay on PC-3 prostate, 1660 nM with CAKI-1 renal, 1560 nM with ACHN renal and 2280 nM with T-47D breast. The TGI was 3410 nM in the assay with DU-145 prostate; more than 100000 nM with K-562 leukemia; 3260 nM with NCI/ADR-RES ovarian; 2980 nM in the assay with SF-295 CNS; 2970 nM in the assay on MALME-3M melanoma; 3630 nM with M14 melanoma. Moreover, the TGI worked out at 3220 nM in the assay on PC-3 prostate, 3060 nM in the assay with CAKI-1 renal, 2890 nM in the assay with ACHN renal and 6440 nM in the assay on T-47D breast.
For `S=c1nc[nH]c2c1ncn2Cc1ccco1`, the TGI with DU-145 prostate, with K-562 leukemia, with NCI/ADR-RES ovarian, in the assay on SF-295 CNS, in the assay with MALME-3M melanoma and in the assay with M14 melanoma was more than 100000 nM in each case. The TGI with PC-3 prostate, in the assay with CAKI-1 renal, in the assay with ACHN renal and with T-47D breast was more than 100000 nM each time.
With `O=C1NC(=O)/C(=C/C=C/c2ccccc2)S1`, the GI50 in the assay with DU-145 prostate was 3760 nM; in the assay with K-562 leukemia, 3270 nM; in the assay with NCI/ADR-RES ovarian, 2870 nM; with SF-295 CNS it was 576 nM; with MALME-3M melanoma, 12300 nM; with M14 melanoma, 2100 nM. Further, the GI50 in the assay with PC-3 prostate is 19400 nM; in the assay on CAKI-1 renal, 460 nM; in the assay on ACHN renal it was 655 nM; in the assay on T-47D breast it was 12800 nM. Besides, the TGI is 36600 nM in the assay on DU-145 prostate; more than 100000 nM in the assay on K-562 leukemia; more than 100000 nM with NCI/ADR-RES ovarian; 6350 nM in the assay on SF-295 CNS; more than 82400 nM with MALME-3M melanoma; more than 20600 nM in the assay with M14 melanoma. Moreover, the TGI in the assay with PC-3 prostate was more than 100000 nM; in the assay with CAKI-1 renal, 8860 nM; in the assay with ACHN renal, more than 37000 nM; in the assay on T-47D breast it was more than 100000 nM.
In the case of `CC[C@@]1(O)C(=O)NCc2c1cc1n(c2=O)Cc2cc3ccccc3nc2-1`, the GI50 in the assay on DU-145 prostate was 2280 nM; in the assay with K-562 leukemia, 4400 nM; in the assay with NCI/ADR-RES ovarian, 2920 nM; with SF-295 CNS it was 575 nM; in the assay on MALME-3M melanoma, 83900 nM; in the assay with M14 melanoma, 1490 nM. Also, the GI50 was 7570 nM with PC-3 prostate, 754 nM in the assay on CAKI-1 renal, 578 nM with ACHN renal and 2630 nM with T-47D breast. In addition, the TGI in the assay with DU-145 prostate was more than 45800 nM; in the assay on K-562 leukemia, more than 100000 nM; in the assay on NCI/ADR-RES ovarian it was more than 48200 nM; in the assay with SF-295 CNS, 13200 nM; with MALME-3M melanoma it was more than 100000 nM; with M14 melanoma, 15100 nM. In addition, the TGI with PC-3 prostate is more than 100000 nM; in the assay with CAKI-1 renal, 11000 nM; in the assay with T-47D breast, more than 100000 nM.
Take `C=C1CCC2C3(C)COC(c4ccc(NC(C)=O)cc4)OC3CCC2(C)C1C/C=C1/C(=O)OCC1O` (stereo not drawn): the GI50 in the assay with DU-145 prostate is more than 100000 nM; in the assay on K-562 leukemia, 2260 nM; in the assay with NCI/ADR-RES ovarian it was 7370 nM; with SF-295 CNS it was 1550 nM; in the assay with MALME-3M melanoma, 5960 nM; in the assay with M14 melanoma, more than 100000 nM. Moreover, the GI50 in the assay on PC-3 prostate is 3390 nM; in the assay with CAKI-1 renal, 4710 nM; in the assay on ACHN renal, 7630 nM; in the assay on T-47D breast it was 2530 nM. In addition, the TGI is more than 100000 nM in the assay on DU-145 prostate; more than 100000 nM in the assay with K-562 leukemia; more than 100000 nM in the assay on NCI/ADR-RES ovarian; 6750 nM with SF-295 CNS; more than 100000 nM with MALME-3M melanoma; more than 100000 nM with M14 melanoma. In addition, the TGI in the assay on PC-3 prostate, in the assay on CAKI-1 renal, in the assay with ACHN renal and in the assay on T-47D breast was more than 100000 nM throughout.
`Oc1ccc2oc3ncc(Cl)c(-c4ccccc4)c3c2c1`: the GI50 in the assay with DU-145 prostate, in the assay with K-562 leukemia, with NCI/ADR-RES ovarian, with SF-295 CNS, in the assay with MALME-3M melanoma and in the assay on M14 melanoma was more than 100000 nM throughout. Moreover, the GI50 in the assay on PC-3 prostate, with CAKI-1 renal, in the assay with ACHN renal and in the assay on T-47D breast was more than 100000 nM each time. In addition, the TGI in the assay with DU-145 prostate, in the assay on K-562 leukemia, with NCI/ADR-RES ovarian, with SF-295 CNS, in the assay on MALME-3M melanoma and in the assay on M14 melanoma was more than 100000 nM each time. In addition, the TGI in the assay on PC-3 prostate, in the assay with CAKI-1 renal, with ACHN renal and in the assay with T-47D breast was more than 100000 nM each time.
